Assay results from patent US12440567B2, “Aqueous antibody formulation stabilized by antioxidants for parenteral administration” (AMGEN INC., priority 2007, dated 2025).

What was measured:
[1] = system: Antibody A binding to its target antigen; assay: Binding of Antibody A to its target antigen (CM5 sensor chip) after UV-B exposure of the formulation; conditions: 20 mM antioxidant; pH 5.20 acetate buffer; 302 nm UV light over 24 hours
Protocol: (§1) For the examples below involving exposure to UVB radiation, each sample was exposed to UVB light (λ≈302 nm) for varying times, using a UVP 8W model UVLMS-38 lamp at 4° C. The formulations were then analyzed using size exclusion chromatography high pressure liquid chromatography (SEC-HPLC). Aggregation (measured via SEC-HPLC analysis) and binding (measured using CM5 gold sensor chips) were measured to determine the effect of the antioxidant on aggregation and bioactivity of the therapeutic protein. The binding activity of therapeutic protein to a ligand (e.g. to an antibody or binding partner, or, in cases where the therapeutic was an antibody, binding activity to the specific target antigen or to protein A) was determined as follows. […] The therapeutic protein-binding ligand of interest was injected until the desired immobilization level was achieved (above 5000 response units). Three different therapeutic protein-binding ligands were measured—Antibody A's target antigen, Protein A, and D11 (an antibody that binds to erythropoietin). […] The remaining activated groups were blocked with 1.0 M ethanolamine-HCl, pH 8.5. […] Various UV-stressed antibody formulations were also diluted in HBS-EP buffer (pH 7.4) to a concentration within the standard curve region, and injected to quantitate the loss of bioactivity to its respective ligand-binding partner.

[2] = system: Antibody A binding to protein A; assay: Binding of Antibody A to protein A (CM5 sensor chip) after UV-B exposure of the formulation; conditions: 20 mM antioxidant; pH 5.20 acetate buffer; 302 nm UV light over 24 hours
Protocol: as §1

EPO binding to D11 [3] = assay: Binding of EPO to D11 monoclonal antibody after UV-B exposure of the formulation; parameters: species or system human
Protocol: For the examples below involving exposure to UVB radiation, each sample was exposed to UVB light (λ≈302 nm) for varying times, using a UVP 8W model UVLMS-38 lamp at 4° C. The formulations were then analyzed using size exclusion chromatography high pressure liquid chromatography (SEC-HPLC). Aggregation (measured via SEC-HPLC analysis) and binding (measured using CM5 gold sensor chips) were measured to determine the effect of the antioxidant on aggregation and bioactivity of the therapeutic protein. The binding activity of therapeutic protein to a ligand (e.g. to an antibody or binding partner, or, in cases where the therapeutic was an antibody, binding activity to the specific target antigen or to protein A) was determined as follows. […] The therapeutic protein-binding ligand of interest was injected until the desired immobilization level was achieved (above 5000 response units). Three different therapeutic protein-binding ligands were measured—Antibody A's target antigen, Protein A, and D11 (an antibody that binds to erythropoietin). […] The remaining activated groups were blocked with 1.0 M ethanolamine-HCl, pH 8.5. A standard curve was prepared by using native forms of the therapeutic protein of interest. Native forms of the therapeutic protein were diluted in HBS-EP buffer (pH 7.4) to concentrations between 1 and 5 μg/mL, and then injected on the column, prepared as described above to obtain a standard curve. At the end of each sample run, regeneration buffer was used to wash away any bound therapeutic protein in preparation for subsequent injections. Various UV-stressed antibody formulations were also diluted in HBS-EP buffer (pH 7.4) to a concentration within the standard curve region, and injected to quantitate the loss of bioactivity to its respective ligand-binding partner. […] The protein was exposed to the same conditions as Antibody A and Antibody B for up to 24 hours.

[4] = system: anti-streptavidin mAb (IgG2); assay: SEC-HPLC aggregation of anti-streptavidin (IgG2) after UV-B exposure; assay type: physicochemical; conditions: 20 mM antioxidant; 1 mg/mL anti-streptavidin, 10 mM sodium acetate, 5% sorbitol, pH 5.00; 302 nm UV-B 24 hours
Protocol: (§2) The SEC-HPLC conditions were as follows: a G3000 TOSOH SWXL column was used and the flowrate was set at 0.5 mL/min. […] For both IgG1 and IgG2, the mobile phase was 80 mM sodium phosphate, 300 mM sodium perchlorate, 10% isopropanol, pH 7.2, and each sample was run for 45 minutes.
(§3) For FIG. 5, the anti-streptavidin formulation was prepared having the following characteristics: 1 mg/mL anti-streptavidin mAb (IgG2), 10 mM sodium acetate, 5% sorbitol, and pH 5.00. For FIG. 6, the Antibody A formulation was prepared having the following characteristics: 1 mg/mL Antibody A (IgG1), 10 mM sodium acetate, 9% sucrose, and pH 5.20.

Antibody A (IgG1) = assay: SEC-HPLC aggregation of Antibody A (IgG1) after UV-B exposure; assay type: physicochemical; conditions: 20 mM antioxidant; 1 mg/mL Antibody A, 10 mM sodium acetate, 9% sucrose, pH 5.20; 302 nm UV-B 24 hours
Protocol: as §2, §3

[5] = system: anti-streptavidin (IgG2 antibody); assay: Thermal aggregation of anti-streptavidin at 52° C. for 10 days; assay type: physicochemical; conditions: 10 mM antioxidant; 50 mM sodium acetate pH 5.00; no UV
Protocol: The SEC-HPLC conditions were as follows: a G3000 TOSOH SWXL column was used and the flowrate was set at 0.5 mL/min. […] Anti-streptavidin was formulated in 50 mM sodium acetate at pH 5.00. These formulations were not exposed to UV radiation but assessed on their thermal stability.

EPO binding to D11 [6] = assay: EPO binding activity after metal catalyzed oxidation (Fe-EDTA, H2O2, ascorbate); parameters: species or system human; conditions: 5 mM ferulic acid; EPO 336 μg/mL in HBS pH 7.0; 0.2 mM Fe-EDTA, 0.3% H2O2, 1 mM ascorbate, 2 hours 37° C.
Protocol: The binding activity of therapeutic protein to a ligand (e.g. to an antibody or binding partner, or, in cases where the therapeutic was an antibody, binding activity to the specific target antigen or to protein A) was determined as follows. Carboxymethyl-dextran chains on a CM5 gold sensor chip were activated with 1-ethyl-3-(3-dimethylaminopropyl)-carbodiimide HCl (EDC) and N-hydroxysuccinimide (NETS) at a flow rate of 5 μL/min. The therapeutic protein-binding ligand of interest was injected until the desired immobilization level was achieved (above 5000 response units). Three different therapeutic protein-binding ligands were measured—Antibody A's target antigen, Protein A, and D11 (an antibody that binds to erythropoietin). For introduction of Antibody A's target antigen to the column, an 80 μg injection of the antigen, diluted in 10 mM Na Acetate pH 4.0 was introduced; for Protein A, a 4 μg injection of Protein A, diluted in 10 mM Na Acetate pH 4.5, was introduced; for D11, a […] injection of D11, diluted in 10 mM Na Acetate pH 5.0 was introduced. The remaining activated groups were blocked with 1.0 M ethanolamine-HCl, pH 8.5.
A standard curve was prepared by using native forms of the therapeutic protein of interest. […]

Antibody A = assay: Discoloration (yellowing) of Antibody A formulations after UV-B exposure; assay type: physicochemical; conditions: UV-B light 24 hours
Description: Discoloration can be assessed visually or by measurement of absorbance at a specific wavelength.
Proteins may also become yellow in color following exposure to UV light.
Pyridoxine is another water soluble B-vitamin (B6) which was studied as a possible antioxidant for preventing protein aggregation caused by UV-B exposure.

COc1cc(/C=C/C(=O)O)ccc1O [ferulic acid]
binding of Antibody A to its target antigen after UV exposure [1]: preserved | binding of Antibody A to protein A after UV exposure [2]: preserved | EPO binding activity to D11 during UV-B exposure (EPO binding to D11 [3]; 0.1 mM antioxidant, UV-B up to 24 hours): able to protect the EPO from degradation and preserve its binding activity | binding of EPO to D11 mAb after UV light exposure (EPO binding to D11 [3]; 20 mM antioxidant, up to 24 hours UV): able to significantly preserve | amount of aggregate of anti-streptavidin (SEC-HPLC) [4]: dramatically reduced | amount of aggregate of Antibody A (SEC-HPLC) (Antibody A (IgG1)): dramatically reduced | aggregation of anti-streptavidin after 10 days at 52° C. [5]: contributed to the aggregation of anti-streptavidin | EPO binding activity preserved (EPO binding to D11 [6]): 100% | yellowing of Antibody A formulation (Antibody A; 10 mM additive alone): no appreciable yellowing | yellowing of Antibody A formulation (Antibody A; 10 mM antioxidant in the presence of 10 mM methionine): no appreciable yellowing
